Where two headings read alike, the source gives them in different places.
Target: Human complement C1s enzyme (Homo sapiens (Human), UniProt P09871)
Test: Human C1s enzyme assay
Format: biochemical
Settings: read-out: IC50 (Stars)
Outline: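 IC50 derived by nonlinear regression of rate versus concentration, with rate taken from A405 kinetics (30 s intervals, 30 min) after adding 100 μM each Z-L-Lys-SBzl and DTNB. C1s from human serum, 1.16 nM, exposed to compound for 5 min at RT beforehand; buffer 50 mM Tris, 1 M NaCl, pH 7.5.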

[1] = Human complement C1s enzyme 1.16 nM, substrate Z-L-Lys-SBzl 100 μM, assay of Example 3
[2] = Human C1s enzyme assay of Example 3

Chain of Human complement C1s enzyme (P09871 438-688 limits assumed): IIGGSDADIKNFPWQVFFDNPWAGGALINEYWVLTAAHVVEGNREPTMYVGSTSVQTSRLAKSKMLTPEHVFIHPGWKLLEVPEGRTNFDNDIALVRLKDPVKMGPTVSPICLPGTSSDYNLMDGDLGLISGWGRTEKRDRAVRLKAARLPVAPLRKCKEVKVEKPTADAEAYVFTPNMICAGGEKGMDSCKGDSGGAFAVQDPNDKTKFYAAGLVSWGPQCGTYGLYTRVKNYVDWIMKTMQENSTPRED
Chain of Human complement C1s enzyme (P09871 16-437 partner limits assumed): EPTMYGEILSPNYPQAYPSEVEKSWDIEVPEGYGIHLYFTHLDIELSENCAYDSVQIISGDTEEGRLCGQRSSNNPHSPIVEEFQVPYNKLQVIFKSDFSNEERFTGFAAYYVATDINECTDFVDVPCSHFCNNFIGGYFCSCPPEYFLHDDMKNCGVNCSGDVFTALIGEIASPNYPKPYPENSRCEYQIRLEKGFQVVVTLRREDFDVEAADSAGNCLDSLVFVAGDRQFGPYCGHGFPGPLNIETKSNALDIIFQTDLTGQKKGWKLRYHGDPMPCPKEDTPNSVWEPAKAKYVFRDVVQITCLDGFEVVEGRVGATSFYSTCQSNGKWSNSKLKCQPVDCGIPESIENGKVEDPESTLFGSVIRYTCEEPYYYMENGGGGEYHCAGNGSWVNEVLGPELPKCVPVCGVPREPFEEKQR

| IC50 [1] | also measured | SMILES |
| --- | --- | --- |
| < 100 nM |  | N=C(N)c1csc([C@@H](CO)NC(=O)[C@@H]2C[C@@H](OC(F)F)CN2C(=O)CNC(=O)c2ccc3c(c2)C(F)(F)c2ccccc2-3)c1 [Compound 396, (2S,4R)—N—((R)-1-(4-carbamimidoylthiophen-2-yl)-2-hydroxyethyl)-1-((9,9-difluoro-9H-fluorene-2-carbonyl)glycyl)-4-(difluoromethoxy) pyrrolidine-2-carboxamide] |
| < 100 nM |  | C[C@@H](NC(=O)[C@@H]1C[C@](F)(COCCCCCC(=O)O)CN1C(=O)CNC(=O)c1ccc2c(c1)-c1ccccc1C2(F)F)c1cc(C(=N)N)cs1 [Compound 201, 6-(((3R,5S)-5-(((R)-1-(4-carbamimidoylthiophen-2-yl)ethyl)carbamoyl)-1-((9,9-difluoro-9H-fluorene-3-carbonyl)glycyl)-3-fluoropyrrolidin-3-yl)methoxy)hexanoic acid] |
| < 100 nM |  | N=C(N)c1csc(CNC(=O)[C@@H]2CC3(CN2C(=O)CNC(=O)c2ccc(-c4cc(Cl)cc(Cl)c4)cc2)OCCO3)c1 [Compound 208, (S)—N-((4-carbamimidoylthiophen-2-yl)methyl)-7-((3′,5′-dichloro-[1,1′-biphenyl]-4-carbonyl)glycyl)-1,4-dioxa-7-azaspiro[4.4]nonane-8-carboxamide] |
|  | IC50 [2]: < 100 nM | N=C(N)c1csc(CNC(=O)[C@@H]2CC3(CN2C(=O)CNC(=O)c2ccc(-c4ccccc4)c(F)c2)OCCO3)c1 [Compound 141, (S)—N-((4-carbamimidoylthiophen-2-yl)methyl)-7-((2-fluoro-[1,1′-biphenyl]-4-carbonyl)glycyl)-1,4-dioxa-7-azaspiro[4.4]nonane-8-carboxamide] |
| < 100 nM |  | C[C@@H](NC(=O)[C@@H]1C[C@@H](S(C)(=O)=O)CN1C(=O)CNC(=O)c1ccc2oc3ccccc3c2c1)c1cc(C(=N)N)cs1 [Compound 220, (2S,4R)—N—((R)-1-(4-carbamimidoylthiophen-2-yl)ethyl)-1-((dibenzo[b,d]furan-2-carbonyl)glycyl)-4-(methylsulfonyl)pyrrolidine-2-carboxamide] |
| < 100 nM |  | C[C@@H](NC(=O)[C@@H]1CC(=C(F)F)CN1C(=O)CNC(=O)c1ccc2c(c1)-c1ccccc1C2(F)F)c1cc(C(=N)N)cs1 [Compound 270, (S)—N—((R)-1-(4-carbamimidoylthiophen-2-yl)ethyl)-1-((9,9-difluoro-9H-fluorene-3-carbonyl)glycyl)-4-(difluoromethylene)pyrrolidine-2-carboxamide] |
|  | IC50 [2]: < 100 nM | C[C@@H](NC(=O)[C@@H]1C[C@@H](C2OCCCO2)CN1C(=O)CNC(=O)c1ccc(Oc2ccc(F)cc2)cc1)c1cc(C(=N)N)cs1 (relative stereo) [Compound 160, (2S,4R*)—N—((R)-1-(4-carbamimidoylthiophen-2-yl)ethyl)-4-(1,3-dioxan-2-yl)-1-((4-(4-fluorophenoxy)benzoyl)glycyl)pyrrolidine-2-carboxamide] |
| < 100 nM |  | CC(=O)NCCNC[C@@]1(F)C[C@@H](C(=O)N[C@H](C)c2cc(C(=N)N)cs2)N(C(=O)CNC(=O)c2ccc3c(c2)-c2ccccc2C3(F)F)C1 [Compound 269, (2S,4S)-4-(((2-acetamidoethyl)amino)methyl)-N—((R)-1-(4-carbamimidoylthiophen-2-yl)ethyl)-1-((9,9-difluoro-9H-fluorene-3-carbonyl)glycyl)-4-fluoropyrrolidine-2-carboxamide] |
| < 100 nM |  | N=C(N)c1csc(CNC(=O)[C@@H]2CC3(CN2C(=O)CNC(=O)c2ccc(-c4ccccc4)o2)OCCO3)c1 [Compound 297, (S)—N-((4-carbamimidoylthiophen-2-yl)methyl)-7-((5-phenylfuran-2-carbonyl)glycyl)-1,4-dioxa-7-azaspiro[4.4]nonane-8-carboxamide] |
| < 100 nM |  | C[C@@H](NC(=O)[C@@H]1CC2(CN1C(=O)Cc1ccc(-c3ccccc3)cc1)OCCO2)c1cc(C(=N)N)cs1 [Compound 338, (S)-7-(2-([1,1′-biphenyl]-4-yl)acetyl)-N—((R)-1-(4-carbamimidoylthiophen-2-yl)ethyl)-1,4-dioxa-7-azaspiro[4.4]nonane-8-carboxamide] |
| < 100 nM |  | C[C@@H](NC(=O)[C@@H]1C[C@@H](S(=O)(=O)C2CC2)CN1C(=O)CNC(=O)c1ccc2c(c1)-c1ccccc1C2(F)F)c1cc(C(=N)N)cs1 [Compound 351, (2S,4R)—N—((R)-1-(4-carbamimidoylthiophen-2-yl)ethyl)-4-(cyclopropylsulfonyl)-1-((9,9-difluoro-9H-fluorene-3-carbonyl)glycyl)pyrrolidine-2-carboxamide] |
| < 100 nM |  | CS(=O)(=O)[C@@H]1C[C@@H](C(=O)N[C@H](CO)c2cc(C(=N)N)cs2)N(C(=O)CNC(=O)c2ncc(-c3ccccc3)cc2F)C1 [Compound 383, N-(2-((2S,4R)-2-(((R)-1-(4-carbamimidoylthiophen-2-yl)-2-hydroxyethyl)carbamoyl)-4-(methylsulfonyl)pyrrolidin-1-yl)-2-oxoethyl)-3-fluoro-5-phenylpicolinamide] |
| > 1000 nM |  | CO[C@@H]1C[C@@H](C(=O)NCc2cc(NC(=O)CNC(=O)c3ccc(Oc4ccc(F)cc4)cc3)cs2)N(C(=O)CNC(=O)c2ccc(Oc3ccc(F)cc3)cc2)C1 [Compound 243, (2S,4R)-N-((4-(2-(4-(4-fluorophenoxy)benzamido)acetamido)thiophen-2-yl)methyl)-1-((4-(4-fluorophenoxy)benzoyl)glycyl)-4-methoxypyrrolidine-2-carboxamide] |
|  | IC50 [2]: < 100 nM | N=C(N)c1csc(CNC(=O)[C@@H]2CC3(CN2C(=O)CNC(=O)c2ccc(-c4ccc(C(F)(F)F)cc4)cc2)OCCO3)c1 [Compound 116, (S)—N-((4-carbamimidoylthiophen-2-yl)methyl)-7-((4′-(trifluoromethyl)-[1,1′-biphenyl]-4-carbonyl)glycyl)-1,4-dioxa-7-azaspiro[4.4]nonane-8-carboxamide] |
| 100 to 1000 nM |  | C[C@@]12C[C@@H]1N(C(=O)CNC(=O)c1ccc(Oc3ccccc3)cc1)[C@H](C(=O)NCc1cc3c(s1)C(N)=NCC3)C2 [Compound 293, (1S,3S,5S)—N-((7-amino-4,5-dihydrothieno[2,3-c]pyridin-2-yl)methyl)-5-methyl-2-((4-phenoxybenzoyl)glycyl)-2-azabicyclo[3.1.0]hexane-3-carboxamide] |
| > 1000 nM |  | NCCCCNc1csc(CNC(=O)[C@@H]2CC3(CN2C(=O)CNC(=O)c2ccc(Oc4ccc(F)cc4)cc2)OCCO3)c1 [Compound 318, (S)-N-((4-((4-aminobutyl)amino)thiophen-2-yl)methyl)-7-((4-(4-fluorophenoxy)benzoyl)glycyl)-1,4-dioxa-7-azaspiro[4.4]nonane-8-carboxamide] |
|  | IC50 [2]: < 100 nM | C[C@@H]1C[C@@H](C(=O)N[C@H](C)c2cc(C(=N)N)cs2)N(C(=O)CNC(=O)c2ccc(Oc3ccc(F)cc3)cc2)C1 [Compound 63, (2S,4R)—N—((R)-1-(4-carbamimidoylthiophen-2-yl)ethyl)-1-((4-(4-fluorophenoxy)benzoyl)glycyl)-4-methylpyrrolidine-2-carboxamide] |
| < 100 nM |  | N=C(N)c1csc(CNC(=O)[C@@H]2CC3(CN2C(=O)CNC(=O)c2ccc(-c4ccc(F)cc4F)o2)OCCO3)c1 [Compound 298, (S)—N-((4-carbamimidoylthiophen-2-yl)methyl)-7-((5-(2,4-difluorophenyl)furan-2-carbonyl)glycyl)-1,4-dioxa-7-azaspiro[4.4]nonane-8-carboxamide] |
| < 100 nM |  | C[C@@H](NC(=O)[C@@H]1C[C@H](C(F)(F)F)CN1C(=O)CNC(=O)c1ccc(Oc2ccc(F)cc2)cc1)c1cc(C(=N)N)cs1 [Compound 323, (2S,4S)—N—((R)-1-(4-carbamimidoylthiophen-2-yl)ethyl)-1-((4-(4-fluorophenoxy)benzoyl)glycyl)-4-(trifluoromethyl)pyrrolidine-2-carboxamide] |
|  | IC50 (Human complement C1s enzyme 1.16 nM, substrate Z-L-Lys-SBzl, assay of Example 3): < 100 nM | CC1c2ccccc2-c2cc(C(=O)NCC(=O)N3C[C@H](S(C)(=O)=O)C[C@H]3C(=O)N[C@H](C)c3cc(C(=N)N)cs3)ccc21 (stereo partly drawn) [Compound 419, (2S,4R)—N—((R)-1-(4-carbamimidoylthiophen-2-yl)ethyl)-1-((9-methyl-9H-fluorene-3-carbonyl)glycyl)-4-(methylsulfonyl)pyrrolidine-2-carboxamide] |
| < 100 nM |  | CC(C)S(=O)(=O)c1ccc(-c2ccc(C(=O)NCC(=O)N3CC4(C[C@H]3C(=O)NCc3cc(C(=N)N)cs3)OCCO4)cc2)cc1 [Compound 216, (S)—N-((4-carbamimidoylthiophen-2-yl)methyl)-7-((4′-(isopropylsulfonyl)-[1,1′-biphenyl]-4-carbonyl)glycyl)-1,4-dioxa-7-azaspiro[4.4]nonane-8-carboxamide] |
| < 100 nM |  | C[C@@H](NC(=O)[C@@H]1C[C@]2(CN(C)C)C[C@@H]2N1C(=O)CNC(=O)c1ccc2c(c1)-c1ccccc1C2(F)F)c1cc(C(=N)N)cs1 [Compound 304, (1S,3S,5S)—N—((R)-1-(4-carbamimidoylthiophen-2-yl)ethyl)-2-((9,9-difluoro-9H-fluorene-3-carbonyl)glycyl)-5-((dimethylamino)methyl)-2-azabicyclo[3.1.0]hexane-3-carboxamide] |
| < 100 nM |  | N=C(N)c1csc([C@@H](CO)NC(=O)[C@@H]2CC3(CN2C(=O)CNC(=O)c2ccc4c(c2)-c2ccccc2C4(F)F)OCCO3)c1 [Compound 376, (S)—N—((R)-1-(4-carbamimidoylthiophen-2-yl)-2-hydroxyethyl)-7-((9,9-difluoro-9H-fluorene-3-carbonyl)glycyl)-1,4-dioxa-7-azaspiro [4.4]nonane-8-carboxamide] |
|  | IC50 [2]: < 100 nM | C[C@@H](NC(=O)[C@@H]1C[C@](F)(CN)CN1C(=O)CNC(=O)c1ccc2c(c1)-c1ccccc1C2(F)F)c1cc(C(=N)N)cs1 [Compound 35, (2S,4S)-4-(aminomethyl)-N—((R)-1-(4-carbamimidoylthiophen-2-yl)ethyl)-1-((9,9-difluoro-9H-fluorene-3-carbonyl)glycyl)-4-fluoropyrrolidine-2-carboxamide] |

From US20250346585A1 (Alexion Pharmaceuticals, Inc., priority 2022, published 2025)
